These results are taken from patent US8324152B2, “Composition for the treatment of atherosclerosis” (Institute National de la Sante et de la Recherche Medicale …, priority 2005, dated 2012).

No end group written: not given here.

Assay [1] deals with Native or MDA-modified peptides 210 and 240. Description: Determination of antibody titers against peptide (serum IgG/IgM ELISA). In kind it is in vivo, mice. Particulars: Example 1; mouse serum 1:50, 405 nm. As for the experimental part:
(§1) Male ApoE −/− mice (B&M, RY, DENMARK, 11 week old) were implanted subcutaneously with mini-osmotic pumps (ALZET1002, DURECT CORPORATION) diffusing PBS or 10 μg of P210, MDA-P210 or P240 per day and for 14 day, at a rate of 0.25 μl/h.
Native or MDA-modified peptides 210 and 240 were used for coating (10 μg/ml of each in PBS pH 7.4) microtiter plates (Nunc MaxiSorp, Nunc, Roskilde, Denmark) in an overnight incubation at 4° C. Coated plates were washed with PBS with 0.05% Tween-20 and thereafter blocked with SuperBlock in Tris-buffered saline (TBS, Pierce) for 5 minutes at room temperature followed by an incubation of mouse serum diluted 1:50 in TBS-0.05% Tween-20 for 2 hours at room temperature and overnight at 4° C. After rinsing, depositions were detected by using biotinylated goat anti-mouse IgM or IgG antibodies (JACKSON IMMUNORESEARCH, West Grove, Pa.) that were incubated for 2 hours at room temperature. The plates were washed and bound biotinylated antibodies were detected by alkaline phosphatase-conjugated streptavidin (SIGMA). The color reaction was developed using phosphatase substrate kit (Pierce). The absorbency at 405 nm was measured after 1 hour of incubation at room temperature. Mean values were calculated after subtraction of background absorbance.

The test system of a further assay is Male ApoE −/− mice. The assay is described as follows: Atherosclerotic lesion size (morphometric analysis) in apoE-/- mice after pump delivery of peptide. It is filed as in vivo. To be noted: Example 2; apoE null mice; result in words. As for the experimental part:
as §1
Then, the mice are kept for another 6 weeks and killed at 19 weeks of age.
Total Plasma and HDL cholesterol were measured with a commercially available cholesterol kit (SIGMA) according to the manufacturer's instructions. Morphometric and immuno-histochemical studies were performed in the aortic sinus and in the thoracic aorta (spanning from the brachiocephalic artery to the renal arteries). Collagen fibers were stained with Sirius red. Immuno-histochemical analysis were then performed. The following primary antibodies were used: MOMA-2 (BIOSOURCE INTERNATIONAL) as a specific marker for macrophages; anti-mouse CD3− (SANTA CRUZ); anti-smooth muscle actin, alkaline phosphatase conjugate, clone 1A4 (SIGMA); and anti-IL-10 antibody (SANTA CRUZ). Morphometric analysis was performed with an automated image processor (HISTOLAB, MICROVISION).
Male apoE−/− mice (B&M, RY, DENMARK, 11 week old) were implanted subcutaneously with mini-osmotic pumps (ALZET1002, DURECT CORPORATION) diffusing phosphate buffer saline (PBS) as control or 10 μg per day of P210, MDA-P210 or P240, for 14 days, at a rate of […]. An additional group of mice receiving ovalbumin (OVA) peptide (323-339) served as control.
Then, the mice were kept for another 6 or 10 weeks and killed at 19 or 23 weeks of age.
Male apoE−/− mice (11-week old) were implanted subcutaneously with mini-osmotic pumps (ALZET1002) diffusing phosphate buffer saline (PBS), as control, or 10 μg per day of P210, MDA-P210 or P240, for 14 days at a rate of 0.25 μl/h. An additional group of mice receiving ovalbumin (OVA) peptide (323-339) served as control. Mice were kept for another 6 weeks and killed at 19 weeks of age. […]

The test system of a further assay is CD4+ cells. Description: Cell proliferation assay: CD4+ cells with CD11c+ dendritic cells from treated mice, [3H]-thymidine. It is filed as cell-based. Particulars: Example 1; anti-CD3 3 μg/ml, 72 hours; PBS control 20 000 cpm. From the text: T cells were purified from spleen or from draining lymph nodes by negative selection with anti-CD11b (M1/70), anti B220, anti-CD8 and anti-NK cells (DX5) followed by depletion with a mixture of magnetic beads coated with anti-rat Ig (DYNAL). CD11c+ dendritic cells were purified by positive selection with anti-CD11c using directly conjugated anti-CD11c beads (clone N418; MILTENYI BIOTEC).
For the cell proliferation assay, purified CD4+ cells (50 000) were mixed with CD11c+ cells (10 000) and anti-CD3 antibodies (3 μg/ml) for 72 hours. [3H]-Thymidine (1 μCi; PERKIN ELMER) was added for the last 18 hours of cell culture.

Turning to “FPDLGQEVALNANTKNQKIR (peptide derived from apolipoprotein B) [P240, Human apoB-100 derived peptide, amino acids 3586 to 3605]”, in assay [1], the “IgG against MDA-P210” value is reported as 0.62±0.11 absorbance units, the “IgG against MDA-P240” value amounted to 0.037±0.007 absorbance units, the “IgG against P210” value stood at 0.47±0.09 absorbance units and the “IgM against MDA-P210” value is 0.79±0.45 absorbance units. Also, in assay [1], the “IgM against MDA-P240” value came out at 1.34±0.52 absorbance units and the “IgM against P210” value worked out at 0.79±0.45 absorbance units.

As for “ISQAVHAAHAEINEAGR (peptide derived from ovalbumin) [Control: chicken ovalbumin (OVA) peptide, amino acids 323 to 339, reference compound]”, in the assay with Male ApoE −/− mice, the “Effect of continuous administration on atherosclerotic plaques, associated inflammation and plaque composition” value (“Effect of continuous administration” below) is recorded as “No significant modification”.

With “KTTKQSFDLSVKAQYKKNKH (peptide derived from apolipoprotein B) [P210, Human apoB-100 derived peptide, amino acids 3136 to 3155]”, in the assay on Male ApoE −/− mice, the “Effect of continuous administration” value is “diminution of the atherosclerotic plaques and of associated inflammation”. For the same substance, in assay [1], the “IgG against MDA-P210” value was found to be 1.45±0.49 absorbance units, the “IgG against MDA-P240” value stood at 0.080±0.038 absorbance units, the “IgG against P210” value is 0.81±0.22 absorbance units and the “IgM against MDA-P210” value turned out to be 1.38±0.04 absorbance units. Further, in assay [1], the “IgM against MDA-P240” value is reported as 1.80±0.41 absorbance units and the “IgM against P210” value was determined as 1.17±0.22 absorbance units.

As for “MDA-P210: Malondialdehyde (MDA)-modified human apoB-100 derived peptide; native P210 modified by 0.5 mol/L MDA for 3 hours at 37° C. (KTTKQSFDLSVKAQYKKNKH; not fully specified)”, the “Effect of continuous administration” value with Male ApoE −/− mice is “diminution of the atherosclerotic plaques and of associated inflammation”. In addition, the “Proliferation of CD4+ cells from control mice in the presence of CD11c+ cells from treated mice” value in the assay on CD4+ cells is given as 9500 cpm. In assay [1], the “IgG against MDA-P210” value was 0.83±0.28 absorbance units, the “IgG against MDA-P240” value was 0.041±0.007 absorbance units, the “IgG against P210” value amounted to 0.51±0.07 absorbance units and the “IgM against MDA-P210” value was 1.30±0.13 absorbance units. Also, in assay [1], the “IgM against MDA-P240” value was found to be 1.24±0.40 absorbance units and the “IgM against P210” value is given as 0.55±0.25 absorbance units.
